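A five-concentration, 48-hour dose response in 96-well plates underlies each endpoint, interpolated linearly between surrounding concentrations. At the GI50, growth is halved. TGI: total growth inhibition.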
Assays:
Experiment in all cases: DTP human tumour cell line panel, 48 h
[1] = system: HS 578T breast
[2] = system: NCI-H226 lung
[3] = system: OVCAR-4 ovarian
[4] = system: TK-10 renal
[5] = system: MALME-3M melanoma
[6] = system: SNB-75 CNS
[7] = system: HCT-15 colon
[8] = system: NCI-H460 lung
[9] = system: UO-31 renal
[10] = system: SF-539 CNS
[11] = system: MOLT-4 leukemia
[12] = system: NCI-H23 lung
[13] = system: K-562 leukemia
[14] = system: UACC-62 melanoma
[15] = system: U251 CNS
[16] = system: M14 melanoma
[17] = system: HCC-2998 colon
[18] = system: SK-MEL-2 melanoma
[19] = system: IGROV1 ovarian
[20] = system: SK-MEL-5 melanoma
[21] = system: PC-3 prostate
[22] = system: MDA-MB-435
[23] = system: MCF7 breast
[24] = system: OVCAR-3 ovarian
[25] = system: SN12C renal
[26] = system: HCT-116 colon
[27] = system: HL-60(TB) leukemia
[28] = system: SF-295 CNS
[29] = system: A549 NSCLC
[30] = system: RXF 393 renal
[31] = system: HOP-62 NSCLC
[32] = system: OVCAR-8 ovarian
[33] = system: DU-145 prostate
[34] = system: NCI-H522 lung
[35] = system: CCRF-CEM leukemia
[36] = system: BT-549 breast
[37] = system: 786-0 renal
[38] = system: EKVX NSCLC
[39] = system: ACHN renal
[40] = system: MDA-MB-231 breast
[41] = system: SR leukemia
[42] = system: SNB-19 CNS
[43] = system: UACC-257 melanoma
[44] = system: T-47D breast
[45] = system: NCI/ADR-RES ovarian
[46] = system: A498 renal
[47] = system: SF-268 CNS
[48] = system: SK-MEL-28 melanoma
[49] = system: SW-620 colon
[50] = system: CAKI-1 renal
[51] = system: LOX IMVI melanoma
[52] = system: COLO 205 colon
[53] = system: OVCAR-5 ovarian
[54] = system: RPMI-8226 leukemia

CC(C)(C)OC(=O)CC(S(=O)(=O)c1ccccc1)S(=O)(=O)c1ccccc1
GI50 [1]: 22 µM
TGI [1]: 81.4 µM
GI50 [2]: 4.84 µM
TGI [2]: 22.7 µM
GI50 [3]: 1.96 µM
TGI [3]: 4.58 µM
GI50 [4]: 1.6 µM
TGI [4]: 3.02 µM
GI50 [5]: 2.08 µM
TGI [5]: 4.36 µM
GI50 [6]: 14.2 µM
TGI [6]: 31.1 µM
GI50 [7]: 1.87 µM
TGI [7]: 3.71 µM
GI50 [8]: 19.5 µM
TGI [8]: 39.4 µM
GI50 [9]: 2.9 µM
TGI [9]: 10.4 µM
GI50 [10]: 17.4 µM
TGI [10]: 33.1 µM
GI50 [11]: 2.42 µM
TGI [11]: 5.57 µM
GI50 [12]: 14.6 µM
TGI [12]: 32.1 µM
GI50 [13]: 3.4 µM
TGI [13]: 13.5 µM
GI50 [14]: 11.4 µM
TGI [14]: 24.1 µM
GI50 [15]: 17.2 µM
TGI [15]: 35.9 µM
GI50 [16]: 10.3 µM
TGI [16]: 22.7 µM
GI50 [17]: 16 µM
TGI [17]: 29.6 µM
GI50 [18]: 17 µM
TGI [18]: 36.2 µM
GI50 [19]: 18.5 µM
TGI [19]: 38.5 µM
GI50 [20]: 15.5 µM
TGI [20]: 28.8 µM
GI50 [21]: 15.1 µM
TGI [21]: 29.7 µM
GI50 [22]: 13.8 µM
TGI [22]: 26.7 µM
GI50 [23]: 13.5 µM
TGI [23]: 33 µM
GI50 [24]: 1.88 µM
TGI [24]: 3.29 µM
GI50 [25]: 15.4 µM
TGI [25]: 29.6 µM
GI50 [26]: 1.46 µM
TGI [26]: 2.78 µM
GI50 [27]: 3.19 µM
TGI [27]: 12.2 µM
GI50 [28]: > 100 µM
TGI [28]: > 100 µM
GI50 [29]: 18.3 µM
TGI [29]: 38.9 µM
GI50 [30]: 1.8 µM
TGI [30]: 3.31 µM
GI50 [31]: 19.1 µM
TGI [31]: 35.4 µM
GI50 [32]: 8.32 µM
TGI [32]: 23.3 µM
GI50 [33]: 15.2 µM
TGI [33]: 28.8 µM
GI50 [34]: 1.65 µM
TGI [34]: 3.53 µM
GI50 [35]: 1.64 µM
TGI [35]: 3.83 µM
GI50 [36]: 12.4 µM
TGI [36]: 25.2 µM
GI50 [37]: 13.9 µM
TGI [37]: 27.4 µM
GI50 [38]: 19.6 µM
TGI [38]: 39.4 µM
GI50 [39]: 1.75 µM
TGI [39]: 3.19 µM
GI50 [40]: 12 µM
TGI [40]: 25.7 µM
GI50 [41]: 3.1 µM
TGI [41]: 12.1 µM
GI50 [42]: > 100 µM
TGI [42]: > 100 µM
GI50 [43]: 3.74 µM
TGI [43]: 15.7 µM
GI50 [44]: 2.32 µM
TGI [44]: 4.48 µM
GI50 [45]: 17.4 µM
TGI [45]: 37.8 µM
GI50 [46]: 13.2 µM
TGI [46]: 26.4 µM
GI50 [47]: 16.5 µM
TGI [47]: 34.4 µM
GI50 [48]: 12.9 µM
TGI [48]: 25.6 µM
GI50 [49]: 1.64 µM
TGI [49]: 3.17 µM
GI50 [50]: 1.66 µM
TGI [50]: 3.52 µM
GI50 [51]: 13.8 µM
TGI [51]: 33.2 µM
GI50 [52]: 1.89 µM
TGI [52]: 3.32 µM
GI50 [53]: 17.4 µM
TGI [53]: 32.7 µM
GI50 [54]: 3.49 µM
TGI [54]: 19.7 µM

From PubChem BioAssay (NCI)
